Reference: patent publication US20110224229A1, “Novel Crystalline Form” (AstraZeneca AB, priority 2010, published 2011)
Entries after “also recorded” stand apart in the source; their conditions may differ.

Experiments:
[1] = Slurrying in water or solvents, hydrate/solvate formation; format: physicochemical
[2] = Humidity interaction, Gravimetrical Vapour Sorption (GVS); format: physicochemical; details: for hygroscopicity, defined as the water uptake by a dried sample when the relative humidity is increased from 0% to 80%: 0% to 80% RH at 25° C.; for hygroscopicity (in words) / water uptake following exposure to 80% relative humidity (RH): GVS, 80% RH
Protocol: The gravimetric responses of test samples to changes in humidity were investigated using a TGA 5000 (TA Instruments) Gravimetrical Vapour Sorption (GVS). The temperature was held at 25° C. throughout the experiments. The relative humidity (RH) was raised in steps (of 5 or 10%) up to 90% RH and lowered back to 0% RH in two cycles. Each level of RH was held until the equilibrium condition (sample weight change<0.0005 wt % per 10 minutes) was reached. 5-10 mg of the test sample was placed in the cup and evaluated. The hygroscopicity was calculated as the relative change in weight of the sample between 0% RH at the start of the second cycle and 80% RH during the increase of humidity in the second cycle.
The hygroscopicity of a sample is dependent on factors in addition to the inherent properties of the pure solid form itself, for example the purity and the crystallinity of the sample will have some impact on the result.

[3] = biological target: T1, Human Neutrophil Elastase (HNE) (Homo sapiens, UniProt P08246); assay: Human Neutrophil Elastase Quenched-FRET Assay; format: biochemical; details: compound dissolved in DMSO; n=7; read-out: IC50 value for inhibition of human neutrophil elastase activity
T1 construct: Human Neutrophil Elastase (HNE) purified from serum; purchased Calbiochem 324681; host or cells: natural source
T1 sequence (P08246 30-267): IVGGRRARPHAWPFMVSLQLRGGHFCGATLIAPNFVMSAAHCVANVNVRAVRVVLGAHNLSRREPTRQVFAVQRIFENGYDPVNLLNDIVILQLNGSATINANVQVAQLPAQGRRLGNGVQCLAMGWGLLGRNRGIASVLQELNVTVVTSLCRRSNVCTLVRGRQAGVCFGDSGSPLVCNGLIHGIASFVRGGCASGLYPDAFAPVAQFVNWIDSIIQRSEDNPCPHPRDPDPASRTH
Protocol: The assay uses Human Neutrophil Elastase (HNE) purified from serum (Calbiochem art. 324681; Ref. Baugh, R. J. et al., 1976, Biochemistry. 15, 836-841). HNE was stored in 50 mM sodium acetate (NaOAc), 500 mM sodium chloride (NaCl), pH 5.5 with added 50% glycerol at −20° C. The protease substrate used was Elastase Substrate V Fluorogenic, MeOSuc-AAPV-AMC (Calbiochem art. 324740; Ref. Castillo, M. J. et al., 1979, Anal. Biochem. 99, 53-64). The substrate was stored in dimethyl sulfoxide (DMSO) at −20° C. The assay additions were as follows: Test compounds and controls were added to black 96-well flat-bottom plates (Greiner 655076), 1.0 μL in 100% DMSO, followed by 30 μL HNE in assay buffer with 0.01% Triton (trade mark) X-100 detergent. The assay buffer constitution was: 100 mM Tris(hydroxymethyl)aminomethane (TRIS) (pH 7.5) and 500 mM NaCl. The enzyme and the compounds were incubated at room temperature for 15 minutes. Then 30 μl substrate in assay buffer was added. The assay was incubated for 90 minutes at room temperature. The concentrations of HNE enzyme and substrate during the incubation were 0.17 nM and 100 μM, respectively. […] Fluorescence was measured on a Wallac EnVision instrument at settings: Excitation 380 nm, Emission 460 nm. IC50 values were determined using Xlfit curve fitting using model 203.

SMILES | solvate/hydrate formation when slurried in water, ethanol or acetonitrile ([1]; slurried in water, ethanol or acetonitrile, XRPD) | hygroscopicity, defined as the water uptake by a dried sample when the relative humidity is increased from 0% to 80% [2] | hygroscopicity (in words) [2] | water uptake following exposure to 80% relative humidity (RH) [2] | IC50 [3] | hydrate formation when slurried in water ([1]; slurried in water for 4 weeks)
CCNC(=O)c1nc(-c2ccnn2-c2ccc(C#N)cc2)c(C)n(-c2cccc(C(F)(F)F)c2)c1=O [Compound (I) Form A, 6-[2-(4-Cyano-phenyl)-2H-pyrazol-3-yl]-5-methyl-3-oxo-4-(3-trifluoromethyl-phenyl)-3,4-dihydro-pyrazine-2-carboxylic acid ethylamide Form A] | forms variable, non-stoichiometric solvates with acetonitrile or ethanol and hydrates with water | 1.6 % (w/w) | slightly hygroscopic; also recorded: non-hygroscopic | about 1.6 % by weight |  | 
CCNC(=O)c1nc(-c2ccnn2-c2ccc(C#N)cc2)c(C)n(-c2cccc(C(F)(F)F)c2)c1=O [Compound (I), 6-[2-(4-Cyano-phenyl)-2H-pyrazol-3-yl]-5-methyl-3-oxo-4-(3-trifluoromethyl-phenyl)-3,4-dihydro-pyrazine-2-carboxylic acid ethylamide] |  |  |  |  | 0.27 nM | 
CCNC(=O)c1nc(-c2ccnn2-c2ccc(C#N)cc2)c(C)n(-c2cccc(C(F)(F)F)c2)c1=O [Compound (I) Form B, 6-[2-(4-Cyano-phenyl)-2H-pyrazol-3-yl]-5-methyl-3-oxo-4-(3-trifluoromethyl-phenyl)-3,4-dihydro-pyrazine-2-carboxylic acid ethylamide Form B] |  | 0.08 % (w/w) | substantially non-hygroscopic | about 0.08 % by weight |  | did not form hydrates
